According to patent US6780853B1, “Neuroactive steroids of the androstane and pregnane series” (priority 1995, dated 2004):
Marks after values point to notes of the source that are not given here.

How the values were obtained:
[1] = molecular target: GABA receptor complex (GRC); assay: [35S]TBPS binding in rat cerebral cortex P2 homogenate; details: for IC50: concentration to inhibit 50% of control [35S]TBPS binding, 2 nM [35S]TBPS; for IMAX (maximum inhibition): maximum inhibition of [35S]TBPS binding
Summary of the method: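 Male Sprague-Dawley rat cortical P2 homogenate (0.5 mg protein) incubated with 2 nM [35S]TBPS in 50 mM Na/K phosphate pH 7.4, 200 mM NaCl, with GABA plus (+)bicuculline, 90 min at 25 °C. Filter-bound radioactivity counted; non-specific binding with […]; IC50 and maximal inhibition by nonlinear regression.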

[2] = system: metrazol induced convulsions; assay: Antimetrazol activity in mice; assay type: in vivo; details: 10 mg/kg, 50% hpbcd; for PTZ % Protected: i.p., 10 min; for % Protected: IP, 10 min before metrazol 85 mg/kg
Summary of the method: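 Mice dosed with test compounds at various doses 10 minutes before metrazol (85 mg/kg) injection. Each animal observed for 30 minutes, recording time to onset of myoclonus (forelimb clonic activity).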

[3] = system: maximal electroshock tonic seizure; assay: Maximal electroshock test; assay type: in vivo, mice; details: 20 mg/kg, i.p., 10 min, 50% hpbcd
From the text: The anticonvulsant tests are similar to that described above.

[4] = system: time spent on the open-arms; assay: Elevated plus-maze test; assay type: in vivo, N.I.H. Swiss-Webster mice; details: IP, 50% hpbcd, 10 mg/kg
From the text: The theoretical basis for the elevated plus-maze test is similar to that of the fight/dark transition test. As it was described previously by Pellow et al. J. Neurosci. Meth. 14:149-167 (1985)), the elevated plus-maze apparatus is designed to utilize the mice's natural aversion to open spaces. The apparatus consists of two open-arms and two enclosed-arms. The elevated plus-maze test allows for two measures of anxiety, the number of entries into the open-arms and the time spent on the open-arms, both expressed as a percentage of the total number of entries and time spent in/on both the open-arms and enclosed-arms.
Male N.I.H Swiss-Webster mice (Harlan, Indianapolis, Ind.) weighing 15-20 g were housed four per cage in polyethylene cages with sawdust bedding. The colony room was environmentally controlled (22° C.) with a 12 hr light/dark cycle (0600-1800 hr). Food and water were available ad libitum, except during testing. The experiments were run from 0700-1500 hr and groups were counterbalanced for time of day effects. Mice were only administered drug or vehicle once.
The method used was previously described (Lister, Psychopharmacol. 92:180-185 (1987)). The apparatus included two open arms perpendicular to two enclosed arms elevated 50 cm from the floor. Each arm was 50 cm long and the walls of the enclosed arms were 40 cm tall. The maze was made completely of black plexiglass. Incandescent 200 W light bulbs were above each of the open arms to produce a strong contrast between the open arms and the enclosed arms.
[…] Swiss-Webster mice were placed in the center of the plus-maze facing an open arm. During the 5 min test period, the number of entries onto the open arms and the enclosed arms, and the time spent in the open arms and enclosed arms were measured. All four paws had to be within an arm for the dependent variable to be measured. Therefore, the time spent in the center of the maze is not counted, so the total time spent in the open arms and the enclosed arms may not equal 5 min.

loss-of-righting reflex = assay: Anesthetic activity, loss-of-righting reflex; assay type: in vivo, mice; details: iv, 10 mg/kg
Protocol: The compounds of and used in the invention can also be used for anesthetic indications at high doses. However, the preferred route of administration to induce anesthesia is intravenous (i.v.) administration. In animals, a drug's anesthetic properties is measured by the drug's ability to produce a loss-of-righting reflex. The loss-of-righting reflex is defined as the inability of an animal to right itself within 30 seconds when placed on its back. Mice were administered drug i.v. in the lateral tail vein. Following administration, mice were placed on their backs and observed for loss-of-righting reflex.

punished responding = assay: Geller-Seifter conflict test; assay type: in vivo, Sprague-Dawley rats
From the text: This animal model of human anxiety utilizes a conditioned state of conflict in rats to ascertain the anxiolytic properties of drugs. Rats are conditioned to bar press for positive reinforcement under two schedules of behavior (Geller and Seifter, Psychopharmacologia 1:482-492 (1960)). The first includes bar pressing under a […] schedule without punishment. The second component is a fixed ratio schedule with each bar press resulting in a positive reinforcement and a punishment The punished component produces a state of conflict within the animal. […] An anxiolytic response would increase the punished responding without affecting the unpunished responding.
Male albino Sprague-Dawley rats (Charles River Labs, Wilmington, Mass.) weighing 250-300 g were used for conflict experiments and were kept on a restricted diet of Purina Lab Chow food pellets with water available at all times to maintain body weight at 85% of their free-feeding young adult levels. Rats were housed individually under a 12-hour light dark cycle with lights on from 0700-1900.
The ant-anxiety (punishment-lessening) and response depressant effects of compounds of the present invention were measured in rats by the conflict test of Geller and Seifter. In this 63-min test hungry rats perform a lever-press response to obtain a sweetened milk reward. The reinforcement schedule consists of punishment and nonpunishment components, alternating approximately every 15 min. Rats were trained in test chambers (Coulbourn instruments) with a lever mounted in one wall, a small dipper that delivered the 0.1-mL milk reward (1 part Eagle condensed milk:2 parts water), and a metal grid floor through which the foot-shock punishment was administered. A DEC PDP 11/73 minicomputer running SKED (State Systems) was used for programming and recording.
Rats initially learned to respond on a continuous reinforcement schedule and progressed rapidly to 30-sec, 1-min, and 2-min variable interval (VI) schedules. On the continuous reinforcement schedule, rats received milk reward following every lever press; on the VI schedules, milk rewards were available at infrequent and variable intervals, eventually at an average of once every 2 min. Four 3-min “conflict” periods were then introduced on the unpunished VI baseline; the first started after 3 min of VI performance and the others were alternated between 12-min periods of VI responding. During conflict periods, which were signalled by the presentation of a light and a tone, the continuous reinforcement schedule was again in force and each lever press delivered both a milk reward and a brief […] foot-shock punishment. […]

[5] = data from Swinyard & Woodhead 1982; cited from earlier work

Row | Compound | IC50 [1] [nM] | IMAX (maximum inhibition) [1] [%] | PTZ % Protected [2] | % Protected [2] [%] | MES % Protected [3] | Plus-Maze (% Control), time spent on the open-arms [4] [% Control] | further results
1 | COCC1(O)CCC2(C)C(CCC3C2CCC2(C)C(OC)CCC32)C1 (stereo not drawn) [3α-Hydroxy-17β-methoxy-3β-methoxymethyl-5α-androstane] | 64 | 100 | 87.5^c % | 87.5 | 18.7^b % | 130 | Loss-of-Righting Reflex (%) (loss-of-righting reflex; 10% hpbcd): 50%
2 | COC[C@@]1(O)CC[C@@]2(C)[C@@H](CC[C@@H]3[C@@H]2CC[C@]2(C)[C@@H](C(C)=O)CC[C@@H]32)C1 [3α-Hydroxy-3β-methoxymethyl-5α-pregnan-20-one] | – | – | – | – | – | – | Geller/Seifter (% or control) (punished responding; IP, 50% hpbcd, 10 mg/kg): 958 % or control
3 | COC1CCC2C3CCC4CC(O)(C#Cc5ccc(C(C)=O)cc5)CCC4C3CCC12C (stereo not drawn) [3β-(4′-Acetylphenylethynyl)-3α-hydroxy-17β-methoxy-19-nor-5β-androstane] | 8 | 96 | 12.5^c % | 31 | 25^b % | 156 | melting point: 148 to 150 °C
4 | COCC1(O)CCC2(C)C(CCC3C2CCC2(C)C(C(=O)CSS(=O)(=O)[O-])CCC32)C1.[Na+] (stereo not drawn) [Sodium S-(3α-hydroxy-3β-methoxymethyl-5α-pregnan-20-on-21-yl)thiosulfate] | – | – | – | – | – | – | Geller/Seifter (% or control) (punished responding; PO, water, 32 mg/kg): 4487.5 % or control
5 | CCOC[C@@]1(O)CC[C@@]2(C)[C@@H](CC[C@@H]3[C@@H]2CC[C@]2(C)[C@@H](C(C)=O)CC[C@@H]32)C1 [3α-Hydroxy-3β-ethoxymethyl-5α-pregnan-20-one] | – | – | – | – | – | – | Geller/Seifter (% or control) (punished responding; IP, 50% hpbcd, 40 mg/kg): 3743 % or control
6 | CCC1(c2ccccc2)C(=O)NC(=O)NC1=O [Phenobarbital] | – | – | – | – | – | – | ED50 RR [5]: 69 mg/kg
7 | CC(=O)C1CCC2C3CCC4CC(O)(C(F)(F)F)CCC4(C)C3C(N(C)C)CC12C (stereo not drawn) [11α-N,N-Dimethylamino-3α-hydroxy-3β-trifluoromethyl-5β-pregnan-20-one] | – | – | – | – | – | – | Geller/Seifter (% or control) (punished responding; IP, citrate, 20 mg/kg): 145 % or control
8 | CO[C@H]1CC[C@H]2[C@@H]3CC[C@@H]4C[C@H](O)CC[C@]4(C)[C@H]3CC[C@]12C [3α-Hydroxy-17β-methoxy-5β-androstane] | 62 | 106 | 87.5^c % | – | 87.5^b % | 115 | melting point: 151 to 156 °C
9 | CCCC(CCC)C(=O)O [Valproate] | – | – | – | – | – | – | ED50 RR [5]: 514 mg/kg
10 | C#C[C@@]1(O)CC[C@@]2(C)[C@H](CC[C@@H]3[C@@H]2CC[C@]2(C)[C@@H](OC)CC[C@@H]32)C1 [3β-ethynyl-3α-hydroxy-17β-methoxy-5β-androstane] | 49 | 101 | 50^c % | 50 | 31.2^b % | 123 | Loss-of-Righting Reflex (%) (loss-of-righting reflex; 50% hpbcd): 50%
